# From US20100292231A1, “Indazole Compounds for Treating Inflammatory Disorders, Demyelinating Disorders and Cancers” (priority 2007, published 2010)
# Where two headings read alike, the source gives them in different places.
# What was measured:
# Assay in all cases: SelectScreen kinase specificity survey
# Format in all cases: biochemical
# [1] = target: T1, ADRBK1 (BARK1, GRK2) (Homo sapiens, UniProt P25098)
# T1 construct: purchased Invitrogen (SelectScreen platform)
# Procedure, shortened: (§1)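 First, uninhibited controls recorded the baseline substrate phosphorylation with 100 micromolar ATP. Next, putative inhibitor was added at 5 graded levels. Finally, the dose-response data were fitted to a four-parameter Hill equation to estimate EC50.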
# [2] = target: T2, TEK (Tie2) (Homo sapiens, UniProt Q02763); settings: estimated, abridged dose response curve, read-out: Kinase inhibitory activity EC50
# T2 construct: purchased Invitrogen (SelectScreen)
# Procedure, shortened: as §1
# [3] = target: T3, PDGFRA D842V (Homo sapiens, UniProt P16234, D842V); settings: estimated, abridged dose response curve, read-out: Kinase inhibitory activity EC50
# T3 construct: purchased Invitrogen (SelectScreen platform)
# Procedure, shortened: as §1
# [4] = target: T4, RPS6KA3 (RSK2) (Homo sapiens, UniProt P51812); settings: estimated, abridged dose response curve, read-out: Kinase inhibitory activity EC50
# T4 construct: purchased Invitrogen, Inc. (SelectScreen platform)
# Procedure, shortened: as §1
# [5] = target: T5, PRKD1 (PKC mu, PKD1) (Homo sapiens, UniProt Q15139); settings: estimated, abridged dose response curve, read-out: Kinase inhibitory activity EC50
# T5 construct: purchased Invitrogen, Inc. (SelectScreen platform)
# Procedure, shortened: as §1
# [6] = target: T6, CDK2/cyclin A (Homo sapiens, UniProt P24941); settings: estimated, abridged dose response curve, read-out: Kinase inhibitory activity EC50
# T6 construct: purchased Invitrogen (SelectScreen platform)
# Procedure, shortened: as §1
# [7] = target: T7, STK22B (TSSK2) (Homo sapiens, UniProt Q96PF2); settings: estimated, abridged dose response curve, read-out: Kinase inhibitory activity EC50
# T7 construct: purchased Invitrogen, Inc. (SelectScreen platform)
# Procedure, shortened: as §1
# [8] = target: T8, NEK2 (Homo sapiens, UniProt P51955); settings: estimated, abridged dose response curve, read-out: Kinase inhibitory activity EC50
# T8 construct: purchased Invitrogen, Inc. (SelectScreen service)
# Procedure, shortened: as §1
# [9] = target: T9, DCAMKL2 (DCK2) (Homo sapiens, UniProt Q8N568); settings: estimated, abridged dose response curve, read-out: Kinase inhibitory activity EC50
# T9 construct: purchased Invitrogen, Inc. (SelectScreen platform)
# Procedure, shortened: as §1
# [10] = target: T10, RPS6KA1 (RSK1) (Homo sapiens, UniProt Q15418); settings: estimated, abridged dose response curve, read-out: Kinase inhibitory activity EC50
# T10 construct: purchased Invitrogen, Inc. (SelectScreen platform)
# Procedure, shortened: as §1
# [11] = target: T11, EPHA2 (Homo sapiens, UniProt P29317); settings: estimated, abridged dose response curve, read-out: Kinase inhibitory activity EC50
# T11 construct: purchased Invitrogen (SelectScreen service)
# Procedure, shortened: as §1
# [12] = target: T12, PRKCB2 (PKC beta II) (Homo sapiens, UniProt P05771); settings: estimated, abridged dose response curve, read-out: Kinase inhibitory activity EC50
# T12 construct: purchased Invitrogen (SelectScreen platform)
# Procedure, shortened: as §1
# [13] = target: T13, EGFR (ErbB1) L861Q (Homo sapiens, UniProt P00533, L861Q); settings: estimated, abridged dose response curve, read-out: Kinase inhibitory activity EC50
# T13 construct: purchased Invitrogen (SelectScreen service)
# Procedure, shortened: as §1
# [14] = target: T14, EGFR (ErbB1) T790M (Homo sapiens, UniProt P00533, T790M); settings: estimated, abridged dose response curve, read-out: Kinase inhibitory activity EC50
# T14 construct: purchased Invitrogen (SelectScreen service)
# [15] = target: T15, PRKCB1 (PKC beta I) (Homo sapiens, UniProt P05771); settings: estimated, abridged dose response curve, read-out: Kinase inhibitory activity EC50
# T15 construct: purchased Invitrogen (SelectScreen platform)
# Procedure, shortened: as §1
# [16] = target: T16, FRAP1 (mTOR) (Homo sapiens, UniProt P42345); settings: estimated, abridged dose response curve, read-out: Kinase inhibitory activity EC50
# T16 construct: purchased Invitrogen, Inc. (SelectScreen platform)
# Procedure, shortened: as §1
# [17] = target: T17, TAOK2 (TAO1) (Homo sapiens, UniProt Q9UL54); settings: estimated, abridged dose response curve, read-out: Kinase inhibitory activity EC50
# T17 construct: purchased Invitrogen (SelectScreen platform)
# Procedure, shortened: as §1
# [18] = target: T18, EPHA8 (Homo sapiens, UniProt P29322); settings: estimated, abridged dose response curve, read-out: Kinase inhibitory activity EC50
# T18 construct: purchased Invitrogen (SelectScreen service)
# Procedure, shortened: as §1
# [19] = target: T19, PAK3 (Homo sapiens, UniProt O75914); settings: estimated, abridged dose response curve, read-out: Kinase inhibitory activity EC50
# T19 construct: purchased Invitrogen (SelectScreen platform)
# Procedure, shortened: as §1
# [20] = target: T20, GSK3B (GSK3 beta) (Homo sapiens, UniProt P49841); settings: estimated, abridged dose response curve, read-out: Kinase inhibitory activity EC50
# T20 construct: purchased Invitrogen (SelectScreen platform)
# Procedure, shortened: as §1
# [21] = target: T21, LYN B (Homo sapiens, UniProt P07948); settings: estimated, abridged dose response curve, read-out: Kinase inhibitory activity EC50
# T21 construct: purchased Invitrogen (SelectScreen)
# Procedure, shortened: as §1
# [22] = target: T22, EPHA3 (Homo sapiens, UniProt P29320); settings: estimated, abridged dose response curve, read-out: Kinase inhibitory activity EC50
# T22 construct: purchased Invitrogen (SelectScreen service)
# Procedure, shortened: as §1
# [23] = target: T23, ERBB4 (HER4) (Homo sapiens, UniProt Q15303); settings: estimated, abridged dose response curve, read-out: Kinase inhibitory activity EC50
# T23 construct: purchased Invitrogen (SelectScreen service)
# Procedure, shortened: as §1
# [24] = target: T24, ROCK2 (Homo sapiens, UniProt O75116); settings: estimated, abridged dose response curve, read-out: Kinase inhibitory activity EC50
# T24 construct: purchased Invitrogen (SelectScreen platform)
# Procedure, shortened: as §1
# [25] = target: T25, BRSK1 (SAD1) (Homo sapiens, UniProt Q8TDC3)
# T25 construct: purchased Invitrogen, Inc. (SelectScreen platform)
# Procedure, shortened: as §1
# [26] = target: T26, MET M1250T (Homo sapiens, UniProt P08581, M1250T); settings: estimated, abridged dose response curve, read-out: Kinase inhibitory activity EC50
# T26 construct: purchased Invitrogen (SelectScreen platform)
# Procedure, shortened: as §1
# T14 sequence (P00533 25-1210 T790M): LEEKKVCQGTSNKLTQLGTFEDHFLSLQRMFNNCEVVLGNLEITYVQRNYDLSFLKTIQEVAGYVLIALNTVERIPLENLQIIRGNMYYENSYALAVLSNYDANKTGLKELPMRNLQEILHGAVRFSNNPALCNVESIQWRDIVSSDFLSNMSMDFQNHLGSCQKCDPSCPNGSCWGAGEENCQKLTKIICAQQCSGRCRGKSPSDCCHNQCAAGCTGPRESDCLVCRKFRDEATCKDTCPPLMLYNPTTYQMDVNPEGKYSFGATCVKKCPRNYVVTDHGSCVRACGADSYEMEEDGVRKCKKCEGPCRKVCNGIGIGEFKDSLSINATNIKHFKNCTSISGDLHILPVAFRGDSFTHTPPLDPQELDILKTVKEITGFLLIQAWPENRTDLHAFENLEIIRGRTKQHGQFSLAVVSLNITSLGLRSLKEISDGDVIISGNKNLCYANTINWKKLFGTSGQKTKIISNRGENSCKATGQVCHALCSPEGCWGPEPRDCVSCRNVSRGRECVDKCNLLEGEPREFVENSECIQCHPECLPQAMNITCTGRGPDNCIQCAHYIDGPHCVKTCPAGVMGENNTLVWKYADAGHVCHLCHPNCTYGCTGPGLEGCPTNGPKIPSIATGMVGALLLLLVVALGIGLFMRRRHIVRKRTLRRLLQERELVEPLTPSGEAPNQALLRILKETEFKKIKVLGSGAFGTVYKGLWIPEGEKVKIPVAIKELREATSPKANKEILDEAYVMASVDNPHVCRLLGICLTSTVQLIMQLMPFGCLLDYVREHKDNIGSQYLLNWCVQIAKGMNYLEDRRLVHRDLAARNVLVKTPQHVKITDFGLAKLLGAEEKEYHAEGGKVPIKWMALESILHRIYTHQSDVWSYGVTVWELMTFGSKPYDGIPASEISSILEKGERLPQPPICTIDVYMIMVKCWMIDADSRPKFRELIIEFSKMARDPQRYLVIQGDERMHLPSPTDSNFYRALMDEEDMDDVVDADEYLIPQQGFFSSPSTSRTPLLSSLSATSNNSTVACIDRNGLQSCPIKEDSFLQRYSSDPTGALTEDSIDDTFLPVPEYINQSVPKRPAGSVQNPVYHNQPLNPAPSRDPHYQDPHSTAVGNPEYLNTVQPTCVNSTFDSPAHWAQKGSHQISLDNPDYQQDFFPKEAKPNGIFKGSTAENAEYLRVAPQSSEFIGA
# T4 sequence (P51812 whole entry): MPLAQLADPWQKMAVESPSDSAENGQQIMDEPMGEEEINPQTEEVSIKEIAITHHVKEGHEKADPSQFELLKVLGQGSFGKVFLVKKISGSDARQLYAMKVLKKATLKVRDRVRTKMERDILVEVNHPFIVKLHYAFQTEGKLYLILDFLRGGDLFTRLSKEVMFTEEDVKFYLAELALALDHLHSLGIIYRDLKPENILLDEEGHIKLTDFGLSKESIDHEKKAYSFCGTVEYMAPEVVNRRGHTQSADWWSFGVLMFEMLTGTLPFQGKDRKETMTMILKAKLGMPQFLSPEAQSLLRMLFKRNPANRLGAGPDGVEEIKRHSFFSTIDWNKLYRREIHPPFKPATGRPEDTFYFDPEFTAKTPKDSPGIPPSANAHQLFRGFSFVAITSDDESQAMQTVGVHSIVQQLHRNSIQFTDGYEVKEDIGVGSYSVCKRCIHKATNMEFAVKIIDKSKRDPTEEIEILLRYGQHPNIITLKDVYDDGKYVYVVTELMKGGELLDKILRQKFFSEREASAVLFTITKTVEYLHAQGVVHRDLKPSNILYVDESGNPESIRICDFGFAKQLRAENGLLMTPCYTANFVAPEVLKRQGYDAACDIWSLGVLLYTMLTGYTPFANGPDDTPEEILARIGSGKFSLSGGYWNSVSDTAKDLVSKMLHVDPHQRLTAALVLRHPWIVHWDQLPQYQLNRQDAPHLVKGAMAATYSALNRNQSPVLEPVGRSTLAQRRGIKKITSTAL
# T11 sequence (P29317 24-976): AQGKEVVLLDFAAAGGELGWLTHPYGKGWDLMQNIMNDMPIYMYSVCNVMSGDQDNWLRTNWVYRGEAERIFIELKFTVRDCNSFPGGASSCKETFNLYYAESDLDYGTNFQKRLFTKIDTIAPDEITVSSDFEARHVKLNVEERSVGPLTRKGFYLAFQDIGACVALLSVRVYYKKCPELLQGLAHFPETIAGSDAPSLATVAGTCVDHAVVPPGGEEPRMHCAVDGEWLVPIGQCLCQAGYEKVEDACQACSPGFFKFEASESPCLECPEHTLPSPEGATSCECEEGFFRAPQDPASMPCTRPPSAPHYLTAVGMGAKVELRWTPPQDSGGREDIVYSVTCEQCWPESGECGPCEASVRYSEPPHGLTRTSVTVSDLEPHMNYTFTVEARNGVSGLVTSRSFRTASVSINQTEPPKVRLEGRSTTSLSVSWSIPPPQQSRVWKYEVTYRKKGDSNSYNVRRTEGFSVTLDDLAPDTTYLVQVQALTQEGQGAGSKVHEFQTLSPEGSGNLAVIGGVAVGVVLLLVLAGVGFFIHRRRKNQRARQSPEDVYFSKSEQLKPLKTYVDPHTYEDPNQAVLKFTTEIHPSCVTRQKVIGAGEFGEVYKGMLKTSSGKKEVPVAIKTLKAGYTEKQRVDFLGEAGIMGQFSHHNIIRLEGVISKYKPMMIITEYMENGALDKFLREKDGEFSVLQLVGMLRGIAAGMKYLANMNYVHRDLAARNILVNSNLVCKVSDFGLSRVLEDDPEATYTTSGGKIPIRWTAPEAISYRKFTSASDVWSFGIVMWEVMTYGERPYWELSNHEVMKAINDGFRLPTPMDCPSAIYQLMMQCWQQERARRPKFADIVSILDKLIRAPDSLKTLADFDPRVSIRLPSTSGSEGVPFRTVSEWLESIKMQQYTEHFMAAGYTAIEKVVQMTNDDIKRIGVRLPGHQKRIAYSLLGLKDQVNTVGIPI
# T2 sequence (Q02763 23-1124): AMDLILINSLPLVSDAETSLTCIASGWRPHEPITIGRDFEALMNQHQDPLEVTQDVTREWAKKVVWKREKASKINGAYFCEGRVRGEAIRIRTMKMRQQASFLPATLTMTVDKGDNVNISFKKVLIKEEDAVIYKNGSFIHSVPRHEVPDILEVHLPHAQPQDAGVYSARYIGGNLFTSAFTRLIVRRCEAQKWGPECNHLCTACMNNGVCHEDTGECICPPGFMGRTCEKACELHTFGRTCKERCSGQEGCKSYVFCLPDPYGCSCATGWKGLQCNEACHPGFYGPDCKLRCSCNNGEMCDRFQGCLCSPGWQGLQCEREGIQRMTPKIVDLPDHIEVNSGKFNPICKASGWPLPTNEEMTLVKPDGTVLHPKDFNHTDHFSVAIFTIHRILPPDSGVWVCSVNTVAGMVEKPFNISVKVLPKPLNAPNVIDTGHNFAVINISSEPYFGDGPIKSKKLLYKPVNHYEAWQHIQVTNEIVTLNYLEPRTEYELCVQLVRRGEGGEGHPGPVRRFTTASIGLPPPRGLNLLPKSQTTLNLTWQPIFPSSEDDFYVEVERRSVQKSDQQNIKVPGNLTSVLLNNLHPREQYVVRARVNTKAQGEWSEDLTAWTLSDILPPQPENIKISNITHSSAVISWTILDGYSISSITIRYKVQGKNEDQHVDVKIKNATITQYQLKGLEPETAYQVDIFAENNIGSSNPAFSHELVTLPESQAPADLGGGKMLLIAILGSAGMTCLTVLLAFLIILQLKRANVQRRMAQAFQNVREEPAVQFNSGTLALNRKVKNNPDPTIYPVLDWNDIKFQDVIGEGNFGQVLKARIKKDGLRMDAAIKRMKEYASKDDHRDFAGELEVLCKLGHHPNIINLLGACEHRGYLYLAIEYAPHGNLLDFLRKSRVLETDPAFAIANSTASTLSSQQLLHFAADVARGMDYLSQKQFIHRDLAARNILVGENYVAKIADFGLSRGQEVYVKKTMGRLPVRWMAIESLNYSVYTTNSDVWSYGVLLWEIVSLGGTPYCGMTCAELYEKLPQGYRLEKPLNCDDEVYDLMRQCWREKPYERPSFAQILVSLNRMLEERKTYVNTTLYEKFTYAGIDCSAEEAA
# T20 sequence (P49841 whole entry): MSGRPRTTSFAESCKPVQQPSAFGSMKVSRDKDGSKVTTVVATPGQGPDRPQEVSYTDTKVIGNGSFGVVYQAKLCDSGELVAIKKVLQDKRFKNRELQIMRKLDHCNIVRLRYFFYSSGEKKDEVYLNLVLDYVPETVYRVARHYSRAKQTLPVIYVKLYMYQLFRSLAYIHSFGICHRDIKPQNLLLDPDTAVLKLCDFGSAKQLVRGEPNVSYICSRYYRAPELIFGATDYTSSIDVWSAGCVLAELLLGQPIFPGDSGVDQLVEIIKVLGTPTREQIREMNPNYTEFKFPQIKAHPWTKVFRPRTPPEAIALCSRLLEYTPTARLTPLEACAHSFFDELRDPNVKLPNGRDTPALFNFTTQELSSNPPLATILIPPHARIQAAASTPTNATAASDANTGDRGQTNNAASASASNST
# T1 sequence (P25098 whole entry): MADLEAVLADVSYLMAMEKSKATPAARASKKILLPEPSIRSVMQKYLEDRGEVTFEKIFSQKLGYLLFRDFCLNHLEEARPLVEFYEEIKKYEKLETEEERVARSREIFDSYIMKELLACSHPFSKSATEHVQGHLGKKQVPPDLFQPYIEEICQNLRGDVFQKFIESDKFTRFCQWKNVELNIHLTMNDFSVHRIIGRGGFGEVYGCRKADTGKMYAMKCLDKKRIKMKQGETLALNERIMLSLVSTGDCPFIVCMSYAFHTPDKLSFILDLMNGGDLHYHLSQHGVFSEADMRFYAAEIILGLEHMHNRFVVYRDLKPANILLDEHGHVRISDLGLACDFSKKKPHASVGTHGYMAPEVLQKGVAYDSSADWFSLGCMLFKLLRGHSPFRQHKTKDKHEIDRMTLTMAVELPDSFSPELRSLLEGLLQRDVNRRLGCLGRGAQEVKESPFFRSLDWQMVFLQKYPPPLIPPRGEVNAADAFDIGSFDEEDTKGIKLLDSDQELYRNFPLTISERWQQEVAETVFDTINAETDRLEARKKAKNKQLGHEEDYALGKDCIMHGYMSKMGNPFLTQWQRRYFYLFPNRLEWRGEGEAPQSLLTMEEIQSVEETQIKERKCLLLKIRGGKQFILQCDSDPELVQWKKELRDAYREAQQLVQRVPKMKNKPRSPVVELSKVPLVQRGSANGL
SMILES,EC50 [2] [µM],EC50 [3] [µM],EC50 [4] [µM],EC50 [5] [µM],EC50 [6] [µM],EC50 [7] [µM],EC50 [8] [µM],EC50 [9] [µM],EC50 [10] [µM],EC50 [11] [µM],EC50 [12] [µM],EC50 [13] [µM],EC50 [14] [µM],EC50 [15] [µM],EC50 [16] [µM],EC50 [17] [µM],EC50 [18] [µM],EC50 [19] [µM],EC50 [20] [µM],EC50 [21] [µM],further results
"CCN(CC)CCNc1ccc2ncn3c4ccc(O)cc4c(=O)c1c23 [Symadex, 5-(2-(diethylamino)ethylamino)-8-hydroxy-6H-imidazo[4,5,1-de]acridin-6-one, reference compound]",> 5,1.06,0.692,0.217,> 5,> 5,> 5,> 5,2.07,> 5,> 5,> 5,2.9,> 5,> 5,> 5,3.35,> 5,> 5,0.812,EC50 [1]: > 5 µM; EC50 [22]: > 5 µM; EC50 [23]: > 5 µM; EC50 [24]: > 5 µM; EC50 [25]: 1.93 µM; EC50 [26]: > 5 µM
CN(C)CCCNc1ccc2ncn3c4ccc5[nH]ncc5c4c(=O)c1c23 [Compound (IV)],> 5,0.37,1.49,0.494,0.822,> 5,> 5,> 5,1.74,> 5,> 5,> 5,4.01,> 5,> 5,> 5,4.15,> 5,> 5,0.426,"EC50 ([1]; ADRBK1 (BARK1, GRK2), estimated, abridged dose response curve, read-out: Kinase inhibitory activity EC50): > 5 µM; EC50 [22]: > 5 µM; EC50 [23]: > 5 µM; EC50 [24]: 0.963 µM; EC50 ([25]; BRSK1 (SAD1), estimated, abridged dose response curve, read-out: Kinase inhibitory activity EC50): 1.39 µM; EC50 [26]: > 5 µM"
